In general, melting point refers to the temperature, or range, at which the solid turns liquid. For `CCOc1ccc(N/C=C(\C(=O)Nc2ccccc2)c2cc(C)no2)cc1` [Example 3, α-[[(4-Ethoxyphenyl)amino]methylene]-3-methyl-N-phenyl-5-isoxazoleacetamide], the melting point fell in the range of 114 to 115 °C.

Take `Cc1cc(/C(=C/Nc2ccc(Cl)cc2)C(=O)Nc2ccc(Cl)cc2)no1` [Example 8, N-(4-Chlorophenyl)-α-[[4-(chlorophenyl)amino]methylene]-5-methyl-3-isoxazoleacetamide]: the melting point fell in the range of 179 to 180 °C.
